Measurements: US12544368B2, “Compositions and methods for reducing cancer stem cells” (The Regents of the University of Colorado, A Body Corporate, priority 2018, dated 2026)

Tests used:
[1] = tested on: relapsed AML patient sample; assay: Engraftment of APO866-treated relapsed AML patient sample into immune deficient mice; type: in vivo; conditions: sample treated for 24 hours before engraftment
[2] = tested on: de novo LSCs; assay: APO866 treatment of LSCs from de novo AML patients (NAD+, viability, colony formation, OXPHOS); type: cell-based, human
Description: (§1) To determine if nicotinamide metabolism is important in LSC survival, particularly in the context of relapsed disease, LSCs were first isolated from de novo AML and relapsed AML patients and analyzed. […] Nicotinamide is a precursor of NAD+, an essential coenzyme in energy metabolism. To test if relapsed LSCs are dependent on nicotinamide metabolism to maintain energy metabolism, nicotinamide metabolism was disrupted in LSCs using the small molecule APO866, which is an inhibitor of Nampt, the rate-limiting enzyme for conversion of nicotinamide to NAD+.
(§2) To better understand the mechanism by which inhibiting nicotinamide metabolism targets relapsed LSCs, changes in OXPHOS and glycolysis activity in de novo and relapsed LSCs after APO866 treatment was measured. […] No change in glycolysis was observed.

[3] = tested on: relapsed LSCs; assay: APO866 treatment of LSCs from relapsed AML patients (NAD+, viability, colony formation, OXPHOS, glycolysis, metabolic flux); type: cell-based, human
Description: as §1, §2
To determine how APO866 reduced OXPHOS, stable isotope metabolic flux of amino acids, the fatty acid palmitate, and glucose into the TCA cycle after APO866 treatment was measured.

[4] = tested on: malate dehydrogenase; assay: TCA cycle enzyme activity in relapsed LSCs after APO866; type: cell-based, human; conditions: 4 hours
[5] = tested on: isocitrate dehydrogenase; assay: as above; type: cell-based, human; conditions: 4 hours
[6] = tested on: α-ketoglutarate dehydrogenase; assay: as above; type: cell-based, human; conditions: 4 hours
[7] = tested on: normal HSPCs
[8] = tested on: CD34+/CD38−/CD123+ cells; assay: Viability of cell populations from MDS patient samples in vitro; type: cell-based, human; conditions: for viability / killing of CD123+ MDS stem cells: MDS patient samples, anisomycin 200 nM and 400 nM, ABT-199 200 nm, omacetaxine 200 nM, azacitidine 2.5 μM
Description: Strategies involving inhibiting protein translation were investigated as a means of improving therapeutic outcomes for MDS through the targeting of pathways deregulated in the CD123+ MDS stem cell compartment. A reagent grade compound, anisomycin was tested. Anisomycin is known to inhibit protein translation and induce “ribotoxic stress”.
(§3) Next, the drug omacetaxine mepesuccinate was tested. Omacetaxine is a protein synthesis inhibitor which is FDA approved.
The drug azacitidine was also tested.
The second major phenotype found to be deregulated in CD123+ cells was oxidative phosphorylation and redox status. Thus, the ability of the BCL-2 inhibitor ABT-199 (venetoclax) to preferentially eliminate MDS stem cells was tested.

[9] = tested on: ROS-low LSCs; assay: In vitro amino acid uptake, amino acid levels and transporter expression in LSCs; type: cell-based, human; conditions: LSCs isolated from three patients
Description: Amino acid levels and cell viability were then measured.

[10] = tested on: AML blasts; assay: OXPHOS (seahorse assay) in leukemia cells from patients pre and 24 hours post treatment; type: in vivo, human; conditions: patients receiving single agent
[11] = tested on: ETC complex II; assay: Glutathione, sdhA glutathionylation and ETC complex II activity in primary AML specimens in vitro; type: cell-based, human
[12] = tested on: LSCs; assay: In vitro viability of LSCs from AML patient samples; type: cell-based, human
[13] = tested on: MDS stem cells; assay: Patient bone marrow derived xenograft model of MDS in NSG-S mice; type: in vivo; conditions: for engraftment models with single agent toxicity for human CD45+ cells: three high-risk MDS patient xenografts
Description: To further evaluate the clinical potential of various agents for targeting of MDS stem cells, an in vivo patient bone marrow derived xenograft model of MDS was developed. The system employed the use of primary MDS specimens transplanted into immune deficient NSG-S mice.
Xenografts established using specimens from three independent high-risk MDS patients were used. Drug treatments included single agent therapy with omacetaxine, venetoclax (ABT), azacitidine, the combination of omacetaxine and venetoclax, or the combination of omacetaxine and azacitidine. To evaluate overall drug activity, the reduction of total human hematopoietic cells was measured using the CD45 (pan-hematopoietic) antigen as a marker. […] Next, drug activity in the stem cell compartment was monitored by gating on the CD34+/CD38−/CD123+ subpopulation.

[14] = tested on: primary MDS cells; assay: Mitochondrial respiration of primary MDS cells; type: cell-based, human
Description: An additional component of the efficacy observed with combined ABT-199 and omacetaxine may involve suppression of MCL-1 as increased MCL-1 expression in CD34+/CD123+ MDS cells was observed. Resistance to BCL-2 inhibition can be overcome via treatment with protein synthesis inhibitors, which down-regulate expression of MCL-1.

[15] = tested on: protein synthesis; assay: Protein translation levels (OP-puro) in MDS cells; type: cell-based, human; conditions: MDS patient samples, 4 hours
Description: The upregulation of the translation gene sets indicates a potential for increased protein synthesis in the CD123+ stem cell population. To further investigate changes in translational activity, protein synthesis levels were measured by culturing cells with a fluorescent substrate known as OP-puro, which is incorporated into newly synthesized polypeptide chains and can be quantified as a measure of overall protein synthesis activity.
as §3

[16] = tested on: CD34+ cells; assay: Valinomycin treatment of normal CD34+ cells; type: cell-based, human; conditions: control and shFIS1 CD34+ cells
[17] = tested on: MOLM-13 cells; assay: Valinomycin-induced mitophagy in MOLM-13 cells; type: cell-based, human; conditions: control MOLM-13 cells
Description: To test whether FIS1 is responsible for the distinct mitochondrial morphology, shRNA-mediated knockdown studies in both the AML cell line MOLM-13 and primary AML cells were performed to examine the effect of FIS1 loss on mitochondrial dynamics. […] To determine if the increased mitochondrial content in FIS1-depleted AML cells is caused by a deficient state of mitophagy, mitophagy was induced in the FIS1-depleted and control cells using the mitochondrial stress inducer valinomycin. […] Expression of PINK1, a kinase stabilized upon mitophagy activation and involved in the clearance of damaged mitochondria was also measured.

[18] = tested on: LSCs and non-LSCs from human AML specimens; assay: Valinomycin treatment of freshly sorted LSCs and non-LSCs; type: cell-based
Description: To determine whether primary AML cells with a higher expression of FIS1 have increased mitophagy activity, valinomycin treatment experiments were performed on freshly sorted LSCs and non-LSCs from human AML specimens.

Compound: O=C(/C=C/c1cccnc1)NCCCCC1CCN(C(=O)c2ccccc2)CC1 [APO866]
- leukemia engraftment [1]: significant reduction in leukemia engraftment
- NAD+ ([2]; LSCs from de novo AML patient samples): significant decrease in NAD+
- viability and colony-forming ability ([2]; LSCs from de novo, untreated patients, 24 hours): not LSCs from de novo, untreated patients
- OXPHOS and OXPHOS capacity ([2]; de novo LSCs, 4 hours): not de novo LSCs
- NAD+ ([3]; LSCs from relapsed AML patient samples): significant decrease in NAD+
- viability and colony-forming ability ([3]; LSCs from relapsed AML patients, 24 hours): decreased viability and colony-forming ability
- glycolysis ([3]; de novo and relapsed LSCs): No change
- OXPHOS and OXPHOS capacity ([3]; relapsed LSCs, 4 hours): significant decrease
- citrate, malate, and α-ketoglutarate from amino acids and palmitate ([3]; stable isotope metabolic flux): increased accumulation
- glycolysis or glucose contribution to the TCA cycle ([3]; stable isotope metabolic flux): No changes
- malate dehydrogenase activity [4]: significantly decreased
- isocitrate dehydrogenase activity [5]: significantly decreased
- α-ketoglutarate dehydrogenase activity [6]: significantly decreased
- normal hematopoietic stem cell frequency or colony forming ability [7]: did not affect

Compound: COc1ccc(C[C@H]2NC[C@H](O)[C@H]2OC(C)=O)cc1 [Anisomycin, anisomycin]
- viability / killing of CD123+ MDS stem cells [8]: selective killing

Compound: Nc1ncn([C@@H]2O[C@H](CO)[C@@H](O)[C@H]2O)c(=O)n1 [azacitidine]
- amino acid transporter expression [9]: Neither venetoclax nor azacitidine could reduce expression
- patients without alterations in OXPHOS levels [10]: two of three
- ROS levels [11]: can increase ROS levels
- ROS-low LSC and ROS-high AML blast viability ([12]; in vitro, 500 nM venetoclax, 2.5 μM azacitidine, 24 hours): potentiates the effect of venetoclax
- viability / killing of CD123+ MDS stem cells [8]: no significant decreases in viability
- toxicity between CD123+ vs. CD123− ([8]; seven high-risk MDS patient specimens): no differential toxicity
- engraftment models with single agent toxicity for human CD45+ cells [13]: one

Compound: CCOC(=O)[C@@]1(CCCCCCOc2ccc(Cl)cc2)CO1 [etomoxir]
- sensitization of LSCs ([12]; venetoclax/azacitidine resistant LSCs): potently sensitizes LSCs to venetoclax+azacitidine

Compound: COC(=O)C[C@](O)(CCCC(C)(C)O)C(=O)O[C@@H]1C(OC)=C[C@]23CCCN2CCc2cc4c(cc2[C@H]13)OCO4 [omacetaxine, omacetaxine mepesuccinate]
- mitochondrial respiration [14]: impairs mitochondrial respiration
- protein translation levels [15]: effective at decreasing protein translation levels
- viability / killing of CD123+ MDS stem cells [8]: specifically targeted CD123+ cells
- engraftment models with single agent toxicity in the more primitive cells ([13]; CD34+/CD38−/CD123+ subpopulation): 2 of 3
- reduction in CD34+/CD38−/CD123+ cells ([13]; each xenograft): greater than or equal to 50%
- reduction in CD34+/CD38−/CD123+ cells ([13]; one xenograft): > 80%
- engraftment models with single agent toxicity for human CD45+ cells [13]: two

Compound: CC(C)[C@@H]1NC(=O)[C@H](C)OC(=O)[C@@H](C(C)C)NC(=O)[C@@H](C(C)C)OC(=O)[C@H](C(C)C)NC(=O)[C@H](C)OC(=O)[C@@H](C(C)C)NC(=O)[C@@H](C(C)C)OC(=O)[C@H](C(C)C)NC(=O)[C@H](C)OC(=O)[C@@H](C(C)C)NC(=O)[C@@H](C(C)C)OC1=O [valinomycin]
- mitochondrial mass [16]: induced mitochondrial accumulation
- mitochondrial content [17]: loss of mitochondria
- PINK1 expression ([17]; 5 mM valinomycin for 3 hr): increased PINK1 expression
- mitochondrial mass in LSCs ([18]; freshly sorted LSCs): efficient clearance of mitochondria
- mitochondrial mass in non-LSCs ([18]; freshly sorted non-LSCs): further accumulation of mitochondrial mass

Compound: sorbitan sesquioleate [SSO]
- normal HSPCs viability or colony forming ability [7]: did not affect
